Experimental data published in PubChem BioAssay AID1963435 (Molecular Pharmacology Branch, DTP, NCI, 2024).
Values joined by “and” are separate entries in the source; they are usually repeats but may differ in a detail not shown here. Equal values may be shown once.

System: PANC-1 complex spheroid growth, percent test/control
Assay: Anticancer human tumor PANC-1 cell line growth inhibition [Asc];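 note: spheroids exposed to agents for 7 days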;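 for viability, T/C: percent viability relative to DMSO vehicle wells taken as 100%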
Conditions: for viability, T/C: stronger effect = lower value
Protocol: Multicellular complex tumor spheroid response to apoptosis pathway targeting inhibitors Alrizomadlin, Pelcitoclax, and Dasminapant in combination with a variety of drugs and investigational agents in selected tumor cell lines
The MDM2 inhibitor alrizomadlin, the Bcl-2/Bcl-xL inhibitor pelcitoclax, and the IAPs inhibitor dasminapant were evaluated both individually and in combination with standard of care and investigational anticancer small molecules within a complex spheroid model of solid tumors. . Complex spheroids include a stromal component modeled by human endothelial cells (HUVEC) and fibroblasts modeled by human mesenchymal stem cells (MSCs). The concentration ranges selected for each drug and investigational agent were based upon clinically achievable concentrations if the clinical Cmax of the agent was known.
Compounds. The drugs and investigational agents: alrizomadlin (APG-115; NSC831270), pelcitoclax (APG-1252; NSC835773), dasminapant (APG-1387;NSC834197), TAK-243 (NSC785004), copanlisib (NSC809693), olaparib (NSC753686), talazoparib (NSC767125), cobimetinib (NSC 768068), eltanexor (KPT-8602, NSC 794443), abemaciclib (NSC 768073), sotorasib (NSC818433), adagrasib (NSC 831453), MRTX-1133 (NSC 836407), Iadademestat (ORY1001, NSC 806812), and RMC-4630 (NSC839698), were obtained from the NCI Developmental Therapeutics Program Chemical Repository. The FDA-approved anticancer drug set is available from the Developmental Therapeutics Program at https://dtp.cancer.gov/organization/dscb/obtaining/available plates.htm. […] The stock solutions were prepared in dimethyl sulfoxide (DMSO, Sigma-Aldrich, St. Louis, MO, cat. D2650) at 800-fold the tested concentration and stored at -70 degrees C prior to their use. All drugs and investigational agents were tested over a range starting from a high concentration at or near the clinical Cmax and decreasing in half-log increments. If the clinical Cmax for an agent had not been determined, the highest concentration tested was 10 microM.
The patient-derived cancer (PDC) cell lines include five colon adenocarcinomas: 186277-243-T-J2-PDC, 616215-338-R-J1-PDC, 439559-082-T-J2-PDC, 463943-066-T-J2-PDC, and 519858-162-T-J1-PDC; three pancreatic carcinomas: 323965-272-R-J2-PDC, 521955-158-R6-J3-PDC, and 521955-158-R2-J5-PDC; two uterine sarcomas: 327498-152-R-J2-PDC and 993429-296-R-J1-PDC; two rhabdomyosarcomas: 755483-174-R-J1-PDC and 772245-204-R-J1-PDC; two soft tissue sarcomas: 126254-015-R-J1-PDC and 494315-158-R-J1-PDC; two malignant fibrous histiocytomas: 317291-083-R-J1-PDC and 596521-263-R-J1-PDC; two breast carcinomas: 171881-019-R-J1-PDC and 885512-296-R-J2-PDC; and one ovarian carcinoma: 6556581-035-R-J-PDC were obtained from the NCI PDMR, (https://pdmr.cancer.gov). The established cell lines HSSY-2 synovial sarcoma (RRID:CVCL 8719), SYO-1 synovial sarcoma (RRID:CVCL_7146), MPNST malignant peripheral neural sheath tumor were obtained from the Sloan Kettering Institute. The following established cell lines were purchased from the American Type Culture Collection (ATCC, Manassas, VA), Sor the received from the NCI repository:, PANC-1 pancreatic carcinoma (CRL-1469, RRID:CVCL_0480), OVCAR-5 ovarian carcinoma (RRID:CVCL_1628), OVCAR-8 ovarian carcinoma (RRID:CVCL_1629), , MCF-7 breast carcinoma (CRL-12584, RRID:CVCL_0031), MDA-MB-231 breast carcinoma (CRL-12532, RRID:CVCL_0062), NCI-H1876 small cell lung carcinoma (CRL-5902, RRID:CVCL_1503), NCI-H510A small cell lung carcinoma (HTB-184, RRID:CVCL_1565), NCI-H1417 (CRL-5869, RRID:CVCL_1469), and NCI-H196 small cell lung carcinoma (CRL-5823, RRID:CVCL_1509). Dr. Peter Houghton (Greehey Children's Cancer Research Institute, University of Texas Health Science Center, San Antonio, TX) provided Rh-18 rhabdomyosarcoma (RRID:CVCL_1659). Pooled donor human umbilical vein endothelial cells (HUVEC, Lonza, cat. CC-2519) and human mesenchymal stem cells (hMSC, Lonza, cat. PT-2501) were purchased from Lonza (Walkersville, MD).
Cell Culture. […]

[1] = compound alone, run of 11/07/2022

C#Cc1c(F)ccc2cc(O)cc(-c3ncc4c(N5CC6CCC(C5)N6)nc(OCC56CCCN5CC(F)C6)nc4c3F)c12 (configuration not stated)
viability, T/C (compound 0.0316 µM): 105% and 87.8% and 92.5%
viability, T/C (compound 0.1 µM): 80% and 75.7% and 88.9%
viability, T/C (compound 0.316 µM): 93.9% and 85.8% and 83.5%
viability, T/C (compound 1 µM): 79.9% and 80.1% and 84%
viability, T/C (compound 3.16 µM): 86.8% and 83.7% and 86.3%
viability, T/C (compound 10 µM): 85.4% and 84.5% and 92.1%
IC50 (curve of compound): > 10000 nM

C=C(F)C(=O)N1CCN(c2nc(OCC3CCCN3C)nc3c2CCN(c2cccc4cccc(Cl)c24)C3)CC1CC#N (configuration not stated)
viability, T/C (compound 0.0316 µM): 108% and 97% and 96.2%
viability, T/C (compound 0.1 µM): 105% and 86% and 95%
viability, T/C (compound 0.316 µM): 94.3% and 104% and 98%
viability, T/C (compound 1 µM): 101% and 96.9% and 96.6%
viability, T/C (compound 3.16 µM): 97.6% and 102% and 90.8%
viability, T/C (compound 10 µM): 29.9% and 33.2% and 31.5%
IC50 (curve of compound): 7100 nM and 7400 nM and 6980 nM

C=CC(=O)N1CCN(c2nc(=O)n(-c3c(C)ccnc3C(C)C)c3nc(-c4c(O)cccc4F)c(F)cc23)C(C)C1 (configuration not stated)
viability, T/C (compound 0.0316 µM): 105% and 97.2% and 101%
viability, T/C (compound 0.1 µM): 96% and 89.2% and 90%
viability, T/C (compound 0.316 µM): 104% and 106% and 98%
viability, T/C (compound 1 µM): 101% and 89.2% and 96.2%
viability, T/C (compound 3.16 µM): 85.8% and 99.7% and 91.8%
viability, T/C (compound 10 µM): 93.4% and 87.1% and 88%
IC50 (curve of compound): > 10000 nM

CCN1C(C(=O)NC23CCC(C(=O)O)(CC2)CC3)C(c2cccc(Cl)c2F)C2(C(=O)Nc3cc(Cl)ccc32)C12CCCCC2 (configuration not stated)
viability, T/C (compound 0.00949 µM): 103% [middle of 9 runs]
viability, T/C (compound 0.03 µM): 102% [middle of 9 runs]
viability, T/C (compound 0.0949 µM): 103% [middle of 9 runs]
viability, T/C (compound 0.3 µM): 100% [middle of 9 runs]
viability, T/C (compound 0.949 µM): 103% [middle of 9 runs]
viability, T/C (compound 3 µM): 112% [middle of 9 runs]
IC50 [1]: > 3000 nM
IC50 (curve of compound): > 3000 nM

CCN1CCN(Cc2ccc(Nc3ncc(F)c(-c4cc(F)c5nc(C)n(C(C)C)c5c4)n3)nc2)CC1
viability, T/C (compound 0.00316 µM): 98.9% and 103% and 108%
viability, T/C (compound 0.01 µM): 107% and 98.8% and 97.8%
viability, T/C (compound 0.0316 µM): 111% (2×) and 121%
viability, T/C (compound 0.1 µM): 114% and 116% and 118%
viability, T/C (compound 0.316 µM): 122% and 124% and 128%
viability, T/C (compound 1 µM): 135% and 128% and 142%
IC50 (curve of compound): > 1000 nM

CNC(C)C(=O)NC1CN(S(=O)(=O)c2cccc(S(=O)(=O)N3CCC4CCC(C(=O)NC(c5ccccc5)c5ccccc5)N4C(=O)C(NC(=O)C(C)NC)C3)c2)CCC2CCC(C(=O)NC(c3ccccc3)c3ccccc3)N2C1=O (configuration not stated)
viability, T/C (compound 0.00316 µM): 107% [middle of 9 runs]
viability, T/C (compound 0.01 µM): 102% [middle of 9 runs]
viability, T/C (compound 0.0316 µM): 98.1% [middle of 9 runs]
viability, T/C (compound 0.1 µM): 96.1% [middle of 9 runs]
viability, T/C (compound 0.316 µM): 93.5% [middle of 9 runs]
viability, T/C (compound 1 µM): 89.2% [middle of 9 runs]
IC50 (compound alone, run of 11/15/2022): > 1000 nM
IC50 (curve of compound): > 1000 nM

COc1c(OCCCN2CCOCC2)ccc2c3n(c(=NC(=O)c4cnc(N)nc4)nc12)CCN3
viability, T/C (compound 0.00316 µM): 101% and 93.1% and 100%
viability, T/C (compound 0.01 µM): 89.9% and 93.9% and 92.4%
viability, T/C (compound 0.0316 µM): 92% and 108% and 94.5%
viability, T/C (compound 0.1 µM): 78.6% and 67.6% and 82.1%
viability, T/C (compound 0.316 µM): 52.2% and 63.2% and 49.7%
viability, T/C (compound 1 µM): 39.4% and 36.3% and 28.6%
IC50 (curve of compound): 511 nM and 302 nM and 385 nM

Cc1c(S(C)(=O)=O)c(-c2cc(F)cc(N3CCN(c4ccc(NS(=O)(=O)c5ccc(NC(CCN6CCC(C(=O)OCCCP(=O)(O)O)CC6)CSc6ccccc6)c(S(=O)(=O)C(F)(F)F)c5)cc4)CC3)c2)c(-c2ccc(Cl)cc2)n1C(C)C (configuration not stated)
viability, T/C (compound 0.0316 µM): 106% [middle of 7 runs]
viability, T/C (compound 0.1 µM): 108% [middle of 7 runs]
viability, T/C (compound 3.16 µM): 109% [middle of 7 runs]
IC50 [1]: > 10000 nM

Cc1nc(N2CCC3(CC2)COC(C)C3N)c(CO)nc1Sc1ccnc(N)c1Cl (configuration not stated)
viability, T/C (compound 0.00949 µM): 101% and 93.1% and 109%
viability, T/C (compound 0.03 µM): 83.2% and 88.3% and 85.1%
viability, T/C (compound 0.0949 µM): 102% and 90.2% and 91%
viability, T/C (compound 0.3 µM): 82.2% and 84.3% and 94.8%
viability, T/C (compound 0.949 µM): 91.4% and 83.7% and 86.9%
viability, T/C (compound 3 µM): 87.5% and 86% and 99.3%
IC50 (curve of compound): > 3000 nM

Cn1ncnc1[C@H]1c2n[nH]c(=O)c3cc(F)cc(c23)N[C@@H]1c1ccc(F)cc1
viability, T/C (compound 0.000316 µM): 97.2% and 109% and 94.1%
viability, T/C (compound 0.001 µM): 104% and 101% and 106%
viability, T/C (compound 0.00316 µM): 99.2% and 110% and 107%
viability, T/C (compound 0.01 µM): 98.5% and 105% and 109%
viability, T/C (compound 0.0316 µM): 109% and 105% and 108%
viability, T/C (compound 0.1 µM): 109% and 105% and 115%
IC50 (curve of compound): > 100 nM

NC(=O)C(=Cn1cnc(-c2cc(C(F)(F)F)cc(C(F)(F)F)c2)n1)c1cncnc1
viability, T/C (compound 0.000949 µM): 99.7% and 95.2% and 104%
viability, T/C (compound 0.003 µM): 88.1% and 92.4% and 96.4%
viability, T/C (compound 0.00949 µM): 92% and 89% and 111%
viability, T/C (compound 0.03 µM): 89.8% and 103% and 102%
viability, T/C (compound 0.0949 µM): 113% and 114% and 130%
viability, T/C (compound 0.3 µM): 92.5% and 100% and 118%
IC50 (curve of compound): > 300 nM

NC1CCC(NC2CC2c2ccccc2)CC1 (configuration not stated)
viability, T/C (compound 0.000316 µM): 98.4% and 88.6% and 107%
viability, T/C (compound 0.001 µM): 100% and 93.4% and 91.5%
viability, T/C (compound 0.00316 µM): 100% and 110% and 93.7%
viability, T/C (compound 0.01 µM): 98.2% and 85.6% and 90.5%
viability, T/C (compound 0.0316 µM): 93.5% and 101% and 93.9%
viability, T/C (compound 0.1 µM): 107% and 91.3% and 97.6%
IC50 (curve of compound): > 100 nM

O=C(c1cc(Cc2n[nH]c(=O)c3ccccc23)ccc1F)N1CCN(C(=O)C2CC2)CC1
viability, T/C (compound 0.0316 µM): 93.1% and 94.8% and 102%
viability, T/C (compound 0.1 µM): 92.7% and 90.1% and 94.9%
viability, T/C (compound 0.316 µM): 99.7% and 109% and 102%
viability, T/C (compound 1 µM): 101% and 112% and 116%
viability, T/C (compound 3.16 µM): 113% and 107% and 103%
viability, T/C (compound 10 µM): 101% and 95.9% and 103%
IC50 (curve of compound): > 10000 nM

O=C(c1ccc(F)c(F)c1Nc1ccc(I)cc1F)N1CC(O)([C@@H]2CCCCN2)C1
viability, T/C (compound 0.00316 µM): 94.2% and 92.8% and 95.9%
viability, T/C (compound 0.01 µM): 90.2% and 82.4% and 91.8%
viability, T/C (compound 0.0316 µM): 87.9% and 89.5% and 101%
viability, T/C (compound 0.1 µM): 85.8% and 91.7% and 97.6%
viability, T/C (compound 0.316 µM): 87.8% and 89.1% and 96.5%
viability, T/C (compound 1 µM): 92.6% and 92.3% and 102%
IC50 (curve of compound): > 1000 nM
